Experimental data published in US8802054B2, “Method for characterizing the oxidative stress protective capacity of an antioxidative substance” (PCR Technology Holdings, LC, priority 2005, dated 2014).

Legend:
[1] = Radical scavenging capacity measured by photochemilluminescence (Photochem system); format: biochemical; settings: for Photochemilluminescence score: 10 nmol/L=20, 100 nmol/L=15, 1000 nmol/L=10, >1000 nmol/L=5; for Effective Concentration (to eliminate radical formation): lowest effective concentration, base 10 serial dilution
From the text: Test 2: Radical Scavenging Capacity Measured by Photochemilluminescence
This test assessed the general antioxidative capacity of substances in their ability to scavenge free radicals via the measurement of radicals generated (or lack thereof) through their reaction with luminol and subsequent light emission.
The individual antioxidant capacity of the putative antioxidant substances was estimated by the Photochem® system (Analytik Jena AG, Jena, Germany, and Analytik Jena USA, Inc., Texas). The system combines the generation of radicals through photochemical excitation with highly sensitive luminometric detection via the radical reaction with luminol to produce measurable light emission. Samples are diluted with pre-made buffers (standardized kits) and applied to the device. The relative antioxidative capacity is determined by comparison to a standardized blank (without antioxidants) and a standard provided with the kit. The ACL-kit (Integral Antioxidative Capacity of lipid-soluble substances) and the ACW-kit ((Integral Antioxidative Capacity of water-soluble substances) were used.
Antioxidant concentrations effective to eliminate radical formulation were established for each antioxidant.

[2] = LDL pro-oxidative system (CuSO4) measuring primary oxidation by-products (lipid hydroperoxides); format: biochemical; settings: 100 μmol antioxidant; normalized to best performer = 20 points
From the text: Test 3: LDL Pro-Oxidative Systems Measuring Primary & By-Products
This test assessed the ability of the antioxidant to protect LDL stressed with Copper Sulfate (Cu—SO4) oxidative system. The CuSO4-LDL system was used to evaluate the protection of lipid bulks over time measuring the primary by-products of lipid peroxidation—the highly reactive and cytotoxic lipid hydroperoxides.
After isolation, LDLs were extensively dialyzed against a degassed and nitrogen-saturated Tris-Hydrochloric (HCl) buffer (5 mmol/L, pH7.4) containing 1 mmol/L EDTA. Before oxidation by CuSO4, EDTA was removed from LDL by dialysis against a Tris-HCl buffer (5 mmol/L, pH7.4) without added EDTA.
Lipid hydroperoxides were determined with the Cayman Lipid Peroxidation (LPO) Assay Kit (Cayman Chemical, Ann Arbor, Mich.) which measures the hydroperoxides directly utilizing the redox reactions with ferrous ions to produce ferric ions which can be detected using thiocyanate ion as the chromogen.

human skin = experiment: UVB irradiation of human skin measuring damage by formation of sunburn cells (sunburn cell assay); format: in vivo; settings: for reduction in SBCs: 0.5% w/w in ethanol/water, topical once a day for two weeks, 1.5 MED UVB; for Sun Burn Cell Assay score: normalized to best performer = 20 points
From the text: Test 1: UVB Irradiation of Human Skin Measuring Damage by Formation of Sunburn Cells (SBC)
Exposure to UV radiation can cause damage of epidermal cells, resulting in the formation of sunburn cells. Since sunburn cells can be counted, their formation provides a relatively sensitive and quantitative measure of the extent of UV radiation damage to the epidermis.
All applications were made to a 5×10 cm area site over the mid-back region once a day for two weeks. Each putative antioxidant was applied to five (n=5) different healthy adult volunteers between the ages of 18 and 60. All Antioxidants were dissolved in ethanol/water at 0.5% w/w concentrations. Additionally, one test site was left untreated and served as a control. Approximately ten minutes after the last application, test sites were irradiated to 1.5 MED (Minimal Erythema Dose) of UVB light, a shave biopsy taken and prepared histologically, and the number of sun burn cells (SBC) evaluated microscopically per High Power Field.
The light source used was a 150 watt xenon arc solar simulator equipped with a UV reflecting dichromic mirror and a 1 mm thick Schott WG-320 (BES Optics Inc., W. Warwick, R.I.) filter to produce simulation of the solar spectrum. A 1 mm thick UG5 filter was added to remove reflected heat and remaining visible radiation.
The MED for each subject was determined by exposing a 1 cm diameter circle to untreated areas to a series of exposures in 25% dose increments from the solar simulator. The MED was defined as the time of exposure required to produce a minimally perceptible erythema 20±4 hours after exposure. Biopsies: Approximately ten minutes after the last topical application of the putative antioxidant, a circular area measuring 1 cm in diameter was exposed to a single dose of 1.5 MED using the solar simulator. Approximately 20 hours later, a shave biopsy (˜4×4 mm) was obtained from each irradiated and untreated control sites. Following injections of a local anesthetic (lidocaine). The skin specimens were immediately fixed in 10% buffered formalin.
The fixed specimens were processed routinely, embedded in paraffin and then sectioned and stained with hematoxylin-eosin. The numbers of sun burn cells (SBC) were determined in at least 12 sections at 50 u intervals. A minimum of 70 high power fields (HPF) was counted from each biopsy and the average number of SBCs per HPF determined. All specimens were counted in a blinded manner.
FIG. 3 expresses the photoprotective benefits of the antioxidants tested based on the percent change over baseline (delta percent) for the number of SBC per HPF.

[3] = system: Human primary foreskin keratinocytes; experiment: UVB irradiation of keratinocytes measuring DNA damage (nuclear thymine dimer staining); format: cell-based; set-up: Inhibition of photoproduct generation (protective effect): concentration or dose not given beside the values; settings: for Positive cells after UVB radiation (anti-thymine dimer antibody positive cells) / Inhibition of photoproduct generation (protective effect): 200 mJ/cm2 UVB; for Positive cells after UVB radiation (anti-thymine dimer antibody positive cells): positive cells above threshold in three fields, irradiated control 53%; for Inhibition of photoproduct generation (protective effect): relative to irradiated control; for UVB Irradiated Keratinocytes score: normalized to best performer = 20 points
From the text: Test 5: UVB Irradiation of Keratinocytes Measuring DNA Damage
This test assessed DNA damage in cell culture experiments under pro-oxidative conditions (UVB irradiation of human keratinocytes) by measuring the positive cells for anti-thymine dimer antibodies. This experiment is thought to reflect a direct correlation to the in vivo occurring DNA cross linking damage following UVB exposure and the protection of such nuclear damage by antioxidants.
Human primary foreskin keratinocytes (second passage) were grown in 6-well plates containing cover slips to 60% confluence in serum free medium (KGM, Clonetics) containing 0.07 mM CaCl2. Six hours before UVB-radiation medium was removed and replaced by fresh growth medium with or without the antioxidative substances.
Keratinocyte cultures were irradiated with a single dose of 200 mJ/cm2 UVB, using FS-20/T-12 bulbs (emission range: 280-340 nm; 305 nm max.). Immediately prior to irradiation, the medium was replaced with 1 ml sterile PBS (pH 7.4, 37° C.), and after irradiation, PBS was replaced with fresh growth medium. UVB exposure was quantitated using a Goldilux Ultraviolet radiometer. Cells were maintained at 37° C. (5% CO2) for 1 hour until fixation with paraformaldehyde (PFA).
Cells were fixed with 4% PFA in PBS for 30 min at RT, washed with PBS and permeabilized by incubation with EtOH/PBS (90/10; v %/v %) for 30 min at ˜10° C. After fixation and permeabilization cells were washed twice with PBS containing 1% of bovine serum albumin (BSA). They were then incubated for 30 min with 10 μg/ml anti-thymine Dimer Ab (clone KTM53; Kamiya) at RT. After the incubation period cells were washed twice with PBS-BSA and incubated for 30 min with 20 μg/ml secondary FITC-conjugated anti-mouse IgG at RT. After the incubation with the secondary antibody, cells were washed twice with PBS-BSA and fixed again with 4% PFA for 15 min at RT. Slides were analyzed by confocal microscopy.
This experiment is thought to reflect the in-vivo occurring DNA damage following UVB exposure and the protection of such nuclear damage by antioxidants.

[4] = Microsome pro-oxidative system (NADPH/ADP/Fe3+) measuring secondary oxidation by-products (MDA equivalents, TBARS); format: biochemical, male Wistar rats; settings: 100 μmol antioxidant; normalized to best performer = 20 points
Experimental: Test 4: Microsome Pro-Oxidative System measuring Secondary Oxidation By-Products
In this test, an assessment of antioxidative ability to protect microsomal membrane stressed with NADPH/ADP/Fe^3+-oxidative system measuring secondary oxidative by-products (Malondialdehyde-MDA equivalents) was performed utilizing the Thiobarbituric Acid Reactive Substances (TBARS) method. […] Therefore the pro-oxidative NADPH/ADP/Fe^3+-microsome system was used as an in vitro model system more closely resembling natural cellular biological systems.
Livers were obtained from male Wistar rats weighing between 250 and 400 g. Tissue was homogenized in 50 mmol/L N-2-Hydroxyethylpiperazine-N-2-Ethanesulfonic Acid (HEPES), 250 mmol/L sucrose buffer, pH 7.4, containing 150 mmol/L Potassium Chloride (KCl) and 500 μmol/L EDTA using a kinematica polytron PT3000 (Brinkmann Instruments, Westbury, N.Y.) homogenizer. Microsomal vesicles were isolated by removal of the nuclear fraction at 8,000×g for 10 min at 4° C. and removal of the mitochondrial fraction at 18,000×g for 10 min at 4° C. using a Beckman L8-55 ultracentrifuge and a 50Ti-13 rotor. The microsomal fraction was sedimented at 105,000×g for 60 min at 4° C. The pellet was washed once in 50 mmol/L HEPES and 150 mmol/L KCl, pH7.4, and collected again at 105,000×g for 30 min. The resulting microsomal pellet was resuspended in HEPES/KCl, pH7.4, by careful sonication in ice and stored in portions (10 mg protein/ml) at −80° C. until use.
The microsomal preparations were incubated in the presence of the pro-oxidant system NADPH/ADP/Fe^3+, consisting of 0.20 mmol/L NADPH, 50 mmol/L ADP, and 0.25 mmol/L FeCl3 in HEPES/KCl buffer (150 mmol/L KCl, 50 mmol/L HEPES) with and without the putative antioxidant substances. Oxidation of 1-ml aliquots containing 1 mg of protein was started at 37° C. by the addition of NADPH and was stopped with EDTA (10 mmol/L) after the times indicated in the figure legends. Control incubations without the pro-oxidant system were performed at 37° C. in the presence of EDTA. All Antioxidants were dissolved in water or ethanol and added to the incubations at equivalent 100 μmol concentrations.
Microsomal preparations (500 μl) were mixed with 1 ml of thiobarbituric acid (0.67 g/100 ml, 0.05 mol/L Sodium Hydroxide-NaOH). After the addition of trichloroacetic acid (50% w/v), the samples were heated to 90° C. for 30 min. After cooling and extraction of the samples with 1 ml of butanol, the absorbance of the butanol phase was determined spectrophotometrically at 532 nm. For quantification, an external standard curve was prepared using 1,1,3,3-tetraethoxypropane, which yields MDA.

[5] = Global relative antioxidant activity: total oxidative stress protective capacity score (sum of five tests); settings: sum of five equally weighted tests, maximum 100
From the text: Each oxidant was scored in each test, the results were then totaled for each antioxidant for each of the tests on an equal weighted basis. The total score of a particular antioxidant is reflective of the overall oxidative stress protective capacity of the antioxidant.
The five tests, which were equally weighted at 20 points each, allowed for the maximum highest possible score of 100 points. Using this scale, the higher score indicates higher oxidative stress protective capacity of the antioxidant. Equal weight was given to an antioxidant's performance in each study because each study tested the antioxidant's ability to protect against a unique different set of oxidative stress parameters.
A total oxidative stress protective capacity score for each antioxidant was determined by adding the results of the five tests for each antioxidant. Each of the five tests was assigned equal weight. That is, each antioxidant could receive a maximum of 20 points in each test so that each test contributed equally to the total score for each antioxidant.

| SMILES | Photochemilluminescence score [1] [points] | Effective Concentration (to eliminate radical formation) [1] | Primary Oxidative Products score [2] [points] | reduction in SBCs (human skin) [%] | Sun Burn Cell Assay score (human skin) [points] | relative activity (efficacy) to the standard idebenone in sun burn cell assay (human skin; percentage reduction divided by that of idebenone) [%] | Positive cells after UVB radiation (anti-thymine dimer antibody positive cells) [3] [%] | Inhibition of photoproduct generation (protective effect) [3] [%] | UVB Irradiated Keratinocytes score [3] [points] | Secondary Oxidative Products score [4] [points] | Total Points (Total Score) [5] [points] |
| --- | --- | --- | --- | --- | --- | --- | --- | --- | --- | --- | --- |
| Cc1c(C)c2c(c(C)c1O)CCC(C)(CCCC(C)CCCC(C)CCCC(C)C)O2 (racemic) [Tocopherol, dl-alpha tocopherol] | 20 | 10 nmol/L | 10 | 31 | 16 | 82 | 35 | 34 | 17 | 17 | 80 |
| O=C(O)CCCCC1CCSS1 (racemic) [lipoic acid, dl-alpha lipoic acid] | 5 | >1000 (not detectable) nmol/L | 4 | – | 5 | – | 53 | 0 | 7 | 20 | 41 |
| O=C1O[C@H]([C@@H](O)CO)C(O)=C1O [Ascorbic acid, 1-ascorbic acid] | – | – | – | – | 0 | – | 34 | 36 | 17 | – | – |
| COC1=C(OC)C(=O)C(CCCCCCCCCCO)=C(C)C1=O [Idebenone, 6-(10-hydroxydecyl)-2,3-dimethoxy-5-methyl-1,4-benzoquinone] | 20 | 10 nmol/L | 16 | 38 | 20 | – | 29 | 45 | 20 | 19 | 95 |
| c1coc(CNc2ncnc3[nH]cnc23)c1 [Kinetin, kinetin] | – | – | – | – | 11 | – | 34 | 36 | 17 | – | – |
| COC1=C(OC)C(=O)C(C/C=C(\C)CC/C=C(\C)CC/C=C(\C)CC/C=C(\C)CC/C=C(\C)CC/C=C(\C)CC/C=C(\C)CC/C=C(\C)CC/C=C(\C)CCC=C(C)C)=C(C)C1=O [Ubiquinone, ubiquinone] | 15 | 100 nmol/L | 5 | – | 6 | – | 51 | 4 | 17 | 12 | 55 |
